Key:
[1] = target: TetR (TetR(B), tetracycline repressor) (Escherichia coli, UniProt P04483); assay: SPR, TetR immobilised on CMDH chip by EDC/NHS coupling; assay type: binding
TetR(B) = TetR(B) (Escherichia coli? (TetR(B) cDNA …, UniProt P04483 1-207)); assay: EMSA; complex appears from 0.5 uM TetR with 0.5 uM tetO; no Dox; EMSA: 20 mM Tris-HCl pH 8.0, 50 mM NaCl, 1 mM MgCl2, 0.1 mM DTT, 15 min at room temperature; 8% PAGE in 90 mM Tris, 90 mM boric acid, 5 mM MgCl2; settings: protein: recombinant; (cloned NdeI-XhoI; Ni-NTA purified); chain copies: 2; label: none (ethidium bromide stain); blunt
Chain of TetR(B) (Escherichia coli? (P04483 whole entry): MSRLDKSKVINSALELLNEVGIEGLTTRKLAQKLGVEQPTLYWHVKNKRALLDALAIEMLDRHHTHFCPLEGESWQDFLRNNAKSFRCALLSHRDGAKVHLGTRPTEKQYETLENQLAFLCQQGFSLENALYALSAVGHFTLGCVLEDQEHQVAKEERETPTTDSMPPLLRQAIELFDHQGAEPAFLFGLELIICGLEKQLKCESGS

Chain of TetR (TetR(B), tetracycline repressor) (P04483 whole entry, looked up): as the sequence (P04483 whole entry) above

C=CCc1cccc(C=NNC(=O)CN2CCN(Cc3ccccc3)CC2)c1O [PAC-1]
Kd [1]: 260 µM

B1: tetO (dsDNA)
DNA 1: CCTAATTTTTGTTGACACTCTATCATTGATAGAGTTATTTTACCACTC
DNA 2: GAGTGGTAAAATAACTCTATCAATGATAGAGTGTCAACAAAAATTAGG
binding result (TetR(B)): binds

— publication PMC6328932, “Procaspase activating compound 1 controls tetracycline repressor-regulated gene expression system” (Bioscience Reports, 2019)
